Structures can show the parent of a compound that is named as a salt.
How the values were obtained:
GPR55 = GPR55 (Homo sapiens, UniProt Q9Y2T6); conditions: putative new cannabinoid receptor; cited from earlier work
5-HT1A receptor = target: T1, 5-HT1A receptor (Homo sapiens, UniProt P08908); conditions: cited from earlier work
T1 sequence (P08908 1-422): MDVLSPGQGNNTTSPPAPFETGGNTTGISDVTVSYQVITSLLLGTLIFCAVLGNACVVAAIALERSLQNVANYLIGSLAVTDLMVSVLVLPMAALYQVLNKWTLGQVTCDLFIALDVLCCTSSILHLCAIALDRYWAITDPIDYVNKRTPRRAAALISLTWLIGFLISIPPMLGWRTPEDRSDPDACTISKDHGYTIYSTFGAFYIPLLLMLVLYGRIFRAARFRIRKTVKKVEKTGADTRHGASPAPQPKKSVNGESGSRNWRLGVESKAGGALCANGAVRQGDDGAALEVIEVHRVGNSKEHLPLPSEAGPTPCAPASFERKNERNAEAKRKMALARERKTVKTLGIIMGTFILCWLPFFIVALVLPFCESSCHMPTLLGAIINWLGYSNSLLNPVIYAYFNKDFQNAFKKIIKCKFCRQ

CB1 and CB2 receptors = conditions: cited from earlier work
[1] = cited from earlier work
CB2 receptor = CB2 receptor (Homo sapiens, UniProt P34972); conditions: cited from earlier work
CB2 receptor, sequence (P34972 whole entry): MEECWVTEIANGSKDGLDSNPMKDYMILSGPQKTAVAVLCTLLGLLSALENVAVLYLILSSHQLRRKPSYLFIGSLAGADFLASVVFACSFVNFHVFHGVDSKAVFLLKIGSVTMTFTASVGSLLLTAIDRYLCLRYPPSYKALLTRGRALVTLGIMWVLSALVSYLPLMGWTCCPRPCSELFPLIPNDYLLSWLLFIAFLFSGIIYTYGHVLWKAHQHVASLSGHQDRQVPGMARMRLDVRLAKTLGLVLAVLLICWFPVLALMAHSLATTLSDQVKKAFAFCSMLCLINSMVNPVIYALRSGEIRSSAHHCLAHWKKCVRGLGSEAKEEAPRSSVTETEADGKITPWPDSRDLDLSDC

[2] = test system: Patient 1 (anxiety, depression, OCD, ADHD-related symptoms); test: Example 2: treatment of Patient 1 with THC (vaporized, then edible); assay type: in vivo, human
Method: Following cessation of efficacy of Zoloft, Patient 1 obtained a prescription for medical marijuana. Patient 1 began by vaporizing marijuana buds and later vaporizing THC wax and oil concentrates.
Patient 1 began consuming THC in edible form at doses ranging from 10-35 mg every 4-6 hours. Initially, Patient 1 consumed 10-20 mg for approximately 1-2 months, and then increased the dose to 30-35 mg. […] Patient 1 used orally consumed THC as a medicament for at least 9 months during which time they observed and recorded the changes in their mood, movements, cognition and behavior while practicing law working, raising children, and otherwise functioning in their daily life. […] Patient 1 continued to use the SSRI Zoloft during approximately the first 2 months of this 9-month period, but thereafter discontinued the use of Zoloft.
Patient 1 reports that symptom relief seems tied to THC's slowing of their perception of time, which results in cascading (positive) effects on their mood, movements, cognition and behavior.

[3] = test system: patients experiencing ADHD-related symptoms or ASD-related symptoms; test: Example 3: group study, THC versus placebo; assay type: in vivo, human; conditions: THC or Marinol versus placebo; re-evaluation after 2-3 weeks adjustment
Method: In patients experiencing ADHD-related symptoms or ASD-related symptoms, obtain baseline measures (using, reports, observations or tests described above) of the symptoms and deficits commonly associated with the conditions. Administer THC, or a synthetic substitute such as Marinol® at a specific dose, to half of the group and administer a placebo to the remainder of the participants. The group that is administered THC should be allowed at least 2-3 weeks to acclimate to THC. After the several week adjustment period, all patients should be re-evaluated using the same or similar tests, observations and reports upon which initial measures of symptoms and deficits were made.

[4] = test system: Patient 1 (anxiety, depression, OCD, substance abuse, ADHD); test: Example 1: treatment of Patient 1 with Zoloft; assay type: in vivo, human
Method: Patient 1 was also a regular user of alcohol and a recreational user of cocaine. Patient 1 was prescribed selective serotonin reuptake inhibitor (SSRI) Zoloft, at 25 mg with doses increasing up to 200 mg over the course of approximately 6-8 months. The dose of Zoloft/sertraline used was 25-200 mg.

[5] = THC in edible form 10-35 mg every 4-6 hours

GPR55, sequence (Q9Y2T6 whole entry, species assumed): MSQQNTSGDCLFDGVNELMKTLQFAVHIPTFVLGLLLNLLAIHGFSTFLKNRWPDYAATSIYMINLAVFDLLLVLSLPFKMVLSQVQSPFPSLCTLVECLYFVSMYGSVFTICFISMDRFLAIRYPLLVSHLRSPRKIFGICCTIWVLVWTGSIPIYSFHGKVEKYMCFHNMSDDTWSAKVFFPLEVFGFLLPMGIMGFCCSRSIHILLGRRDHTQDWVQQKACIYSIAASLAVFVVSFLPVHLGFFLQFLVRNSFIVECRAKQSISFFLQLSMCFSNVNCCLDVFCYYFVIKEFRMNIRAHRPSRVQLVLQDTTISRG

In the case of `C=C(C)[C@@H]1CCC(C)=C[C@H]1c1c(O)cc(CCCCC)cc1O` [CBD, cannabidiol], the “activity at GPR55” value (GPR55) is given as “antagonist”, the “activity at 5-HT1A receptor” value (5-HT1A receptor) is given as “agonist” and the “affinity for CB1 and CB2 receptors” value (CB1 and CB2 receptors) is given as “little affinity”. The “relative affinity for CB1 versus CB2 receptor” value (CB1 and CB2 receptors) was “greater affinity for the CB2 receptor”.

In the case of `CCCCCc1cc(O)c2c(c1)OC(C)(C)[C@@H]1CCC(C)=C[C@@H]21` [THC, (−)-(6aR,10aR)-6,6,9-trimethyl-3-pentyl-6a,7,8,10a-tetrahydro-6H-benzo[c] chromen-1-ol], the peak plasma time ([1]; Absorption) is given as 0.5 to 4 h, the protein bound ([1]; Distribution) is given as 90-99% and the “excretion: feces” value ([1]; Elimination) is given as 50%. For the same molecule, the “excretion: urine” value ([1]; Elimination) was 15%, the “half-life, parent drug” value ([1]; Elimination) was 25 to 36 h and the renal clearance ([1]; Elimination) was 18 to 20 mL/min. For the same molecule, the total body clearance ([1]; Elimination) was 3.3 mL/min/kg, the Metabolism ([1]; in vivo) was “extensive first-pass hepatic metabolism” and the “activity at CB2 receptor” value (CB2 receptor) was “partial agonist”. The “relative affinity for CB1 versus CB2 receptor” value (CB1 and CB2 receptors) was “approximately equal affinity”, the “OCD and ADHD-related symptoms” value [2, 5] was “elimination” and the “ability to focus and concentrate on reading, writing, and interpersonal interactions” value [2, 5] was “increased ability to focus and concentrate”. The “anxiety, depression” value [2, 5] was “significant reduction”, the perception of time [2, 5] was “slowed perception of time” and the side effects ([2]; edible THC, after initial adjustment period of approximately 2 weeks) was “No significant side effects”. For the same molecule, the “ability to read body language and facial expressions” value ([2]; orally-consumed THC) was “increase in their ability to read body language and facial expressions”, the “alcohol and cocaine use” value ([2]; orally-consumed THC) was “rarely consumed alcohol and stopped using cocaine” and the “coordination and balance, fine motor skills” value ([2]; orally-consumed THC) was “improvements in coordination and balance”. The “interpersonal relationships at home and in the workplace” value ([2]; orally-consumed THC) was “improvement in interpersonal relationships”, the “propensity to interrupt while orally communicating” value ([2]; orally-consumed THC) was “reduced propensity to interrupt” and the “sensitivity to peripheral noise and other distractions” value ([2]; orally-consumed THC) was “reduction in sensitivity”. For the same molecule, the “visualizing images described in writings, sense of direction” value ([2]; orally-consumed THC) was “increased ability to visualize images described in writings and an improved sense of direction” and the “symptoms and deficits associated with ASD and ADHD” value [3] was “reduce or eliminate”.

For `CN[C@H]1CC[C@@H](c2ccc(Cl)c(Cl)c2)c2ccccc21` [Zoloft, sertraline HCl], the “treating anxiety, depression, OCD, substance abuse and ADHD” value ([4]; 25 mg increasing up to 200 mg over 6-8 months, at initial dose and each incremental increase) was “initially effective” and the persistence of effects ([4]; 25-200 mg, after dosage increases) was “effects wore off at varying intervals”.
